# Source: patent publication US9040713B2, “Methods of managing blood sugar levels and compositions related thereto” (EMORY UNIVERSITY, priority 2010, dated 2015)
# Legend:
# [1] = tested on: 3T3-L1 adipocytes; assay: [3H] 2-deoxyglucose transport in 3T3-L1 adipocytes; format: cell-based, mouse; details: for glucose uptake after depletion of IR: siRNA against IR
# Experimental: NIH 3T3-L1 preadipocytes and MEFs were grown in standard media. MEF were continuously passed in standard media to generate spontaneously immortalizedfibroblasts. […] 3T3-L1 adipocytes were reseeded into 12-well plates 10 to 12 days after differentiation. […] The transport reaction was initiated by adding 2-deoxyglucose (final 100 uM) with [3H] 2-deoxyglucose (0.2 μCi/well). After a 10 min incubation period, cells were washed three times with ice-cold PBS, solubilized in 1% SDS, 1M NaOH. After neutralization, radioactivity was measured by scintillation counting
# [2] = tested on: wild-type MEF cells; assay: [3H] 2-deoxyglucose transport in wild-type MEF cells; format: cell-based, mouse; details: insulin 100 nM 15 min or compound 5 μM 30 min
# Experimental: Insulin signaling in the cell lysates were tested by immunoblotting. (B) DDN stimulates glucose uptake. […] [3H]2-deoxyglucose was then added, and the cells were further incubated for 10 min. [3H]2-deoxyglucose uptake by adipocytes was measured by scintillation counting (*: P<0.05 **: P<0.01 vs control, Student's t-test, n=3). (C) DDN synergizes insulin's signaling. […] Cell lysates were then prepared for Western blot using specific antibodies as indicated. […] 3H-2-deoxyglucose was then added, and the cells were further incubated for 10 min. 3H-2-deoxyglucose uptake by adipocytes was measured by scintillation counting (*: P<0.05; **: P<0.01, Student's t-test, n=3). (E) IR is necessary for DDN to induce ERK phosphorylation. Differentiated 3T3-L1 adipocytes were transfected with control siRNA or siRNA against IR. […] Cell lysates were analyzed by Western blot. (F) The glucose uptake induced by DDN in p85α knockout MEF cells. […] The uptake of 3H-2-deoxyglucose was monitored by liquid scintillation counting (*: P<0.05; **: P<0.01 vs control, Student's t-test, n=3).
# (A) 4524-E7 activates IR phosphorylation and its downstream signaling in 3T3-L1 adipocytes. […] The cells were lysed, and immunoprecipitated with PY20, and followed by Western blot using specific antibodies. (B) 4524-E7 stimulates glucose uptake in 3T3-L1 adipocytes. […] [3H]2-deoxyglucose was added, and the cells were further incubated for 10 min. The amount of [3H]2-deoxyglucose taken by adipocytes was measured. (C) 4524-E7 inhibits fatty acid oxidation. […] Results were normalized to DMSO-treated cells and expressed as mean±S.E.M. (*: P<0.05; **:P<0.01, Student's t-test, n=3). (D) IR knockdown in adipocytes decreases IR signaling by 4524-E7. […] Cells lysates were collected and analyzed by Western blot. […] 2-deoxyglucose was monitored by liquid scintillation counter. Results were expressed as mean±S.E.M. (*: P<0.05; **:P<0.01, Student's t-test, n=3).
# NIH 3T3-L1 preadipocytes and MEFs were grown in standard media. […] After neutralization, radioactivity was measured by scintillation counting
# [3] = tested on: C57BL/6J mice; assay: Blood glucose level test in C57BL/6J mice; format: in vivo, mouse; details: for time until decrease of blood glucose: DDN 20 mg/kg oral, insulin 1 U/kg i.p.
# Experimental: (A) DDN reduces blood glucose in C57BL/6J mice. […] Blood glucose was monitored before and after dosing at various time points as indicated (*: P<0.05, **: P<0.01; ***: P<0.001, n=10-13, Two-way ANOVA vs vehicle). (B) DDN provokes IR phosphorylation and its downstream signaling in C57BL/6J mice. Three month-old C57BL/6J mice were starved for 12 h and then orally administrated with vehicle (0.5% methylcellulose), DDN (20 mg/kg) or 2NH2-NQ (20 mg/kg). Cell lysates were prepared from liver and muscle tissues collected at 3, 4, and 5 h after drug administration and analyzed by immunoprecipitation and immunoblotting. (C) DDN quickly activates IR phosphorylation and its downstream signaling. Three-month-old C57BL/6J mice were starved for 12 h and then injected with vehicle, 5 mg/kg DDN or 5 mg/kg 2NH2-NQ through vena cava. After 5 min, the liver was collected and analyzed by immunobloting using specific antibodies.
# (A) 4524-E7 provokes IR phosphorylation in various tissues of mice. Three-month-old C57BL/6J mice were starved for 12 h and then dosed with vehicle (0.5% methylcellulose) or 4524-E7 (20 mg/kg). Cell lysates from liver, muscle, and WAT were prepared at 3, 4, and 5 h after drug administration and analyzed by immunoblotting. (B) Basal and insulin-stimulated hepatic glucose production rates were measured by hyperinsulinemic-euglycemic clamp. […] (C) Hypoglycemic effect of 4524-E7 in C57BL/6J mice. C57BL/6J mice were starved for 12 h and then orally administrated with vehicle (0.5% methylcellulose) or 4524-E7 (5 mg/kg). Blood glucose was monitored at different time points as indicated (n=8, *: P<0.05, two-way ANOVA). (D) Hypoglycemic effect in db/db mice. db/db mice were starved for 12 h and then orally injected with vehicle (0.5% methylcellulose) or 4524-E7 (5 mg/kg). Blood glucose was monitored at different time points as indicated (n=5, *: P<0.05, two-way ANOVA). (E) Glucose tolerance test in ob/ob mice. The mice were starved for 12 hours and then orally administrated with vehicle or 4524-E7 (5 mg/kg). A bonus of glucose (2 gm/kg) was injected intraperitoneally 1 hour later. Blood glucose was then measured at 30 min intervals (n=13, *: P<0.05; **: P<0.01, two-way ANOVA).
# After a 12 h fasting, C57B5L/6J and db/db mice were bled from the tail vein for a baseline measurement with a glucometer (Accu-Chek; Roche Diagnostics, Indianapolis, Ind.). Afterward, animals were orally administered 5 mg/kg compound in 0.5% methylcellulose through a feeding needle. Blood glucose levels were measured at hourly intervals over 5 h.
# [4] = tested on: mice; assay: Repeated dosing tolerability in mice; format: in vivo, mouse
# Experimental: […] Mice were chronically treated with 4524-E7 for 2 weeks and tested if the compound can inhibit food intake.
# In liver and muscle, DDN elicited demonstrable IR activation after 3-4 h (FIG. 3B, 1st panel). […] The liver was then dissected and homogenized after 5 min. […] Similarly to the observation in C57/BL6 mice, DDN induces IR signaling in the well-established mice models of non-insulin-dependent diabetes mellitus.
# [5] = C57BL/6J mice, 5 mg/kg daily oral, 16 days
Compound,"3H-deoxyglucose uptake ([1]; 5 nM, alone)",glucose uptake after depletion of IR [1],[3H]-2-deoxyglucose uptake [2],time until decrease of blood glucose [3],"glucose uptake as compared to control ([1]; 5 μM, 30 min)",lowest concentration significantly elevating glucose uptake ([1]; 30 min),"glucose uptake in combination with insulin ([1]; 4524-E7 plus 10 nM insulin, versus the two agents alone)","blood chemistry analysis ([4]; 5 mg/kg, 2 weeks)","food intake and body weight compared to vehicle control ([4]; 5 mg/kg, 2 weeks)",pathological examination on all major organs ([4]; two week period),"blood glucose ([3]; 5 mg/kg single oral administration, 3˜4 h after)",glucose uptake in combination with insulin ([1]; 5 nM DDN plus 5 nM insulin),"3H-deoxyglucose uptake ([1]; DDN 0.1, 0.25, 0.5 μM, 30 min)","food intake and blood biochemistry [4, 5]","pathological examination of brain, heart, liver, kidney and muscle [4, 5]",side effects ([4]; administrated to animals for two weeks),"blood glucose as compared to vehicle control ([3]; 20 mg/kg oral, 12 h starved)"
"insulin: insulin, used as positive control",significantly increased,substantially diminished,triggered robust [3H]-2-deoxyglucose uptake,Thirty min,–,–,–,–,–,–,–,–,–,–,–,–,–
"O=C1c2ccccc2C(=O)C2SC(Nc3ccc(Cl)cc3)=NC12 (stereo not drawn) [4524-E7, 2-((4-chlorophenyl)amino)naphtho[2,3-d]thiazole-4,9(3aH,9aH)-dione]",–,substantially diminished,triggered robust [3H]-2-deoxyglucose uptake,–,nearly quadrupled,1 µM,additively escalated,comparable results between drug-treated mice and vehicle control,not significantly changed,no demonstrable toxicity was detected,70 % of basal level,–,–,–,–,–,–
"CC(=O)Oc1ccc(OC(C)=O)c2c1C(=O)C(Cl)=C(Cl)C2=O [DDN, 5,8-diacetyloxy-2,3-dichloro-1,4-naphthoquinone]",–,–,triggered robust 3H-deoxyglucose uptake,3 h,–,–,–,–,–,–,–,further increased,escalated 3H-deoxyglucose uptake in a dose-dependent manner,"did not affect the food intake, or blood biochemistry",failed to detect any demonstrable toxicity,does not exhibit any intolerable side effects,significantly reduced blood glucose
